Laboratory results reported in the supplement of paper PMC10307832.

Tests used:
Assay in all cases: relative viability (nuclei count vs DMSO), 5 days (fraction); higher = more cells survive
[1] = compound: CN(C)CC1=CC(=CC=C1)N=C(C2=CC=CC=C2)C3=C(NC4=C3C=CC(=C4)C(=O)N(C)C)O + COc1cccc2cc(-c3nc([C@H]4CC[C@H](C(=O)O)CC4)n4ncnc(N)c34)[nH]c12 [OSI-027] (partner 0.5 µM)
Procedure, shortened: (§1)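 Nuclei were stained with Hoechst during a one-step fixation (final 0.05% Triton X-100, 1% formaldehyde, 1 ug/ml Hoechst) carried out 5 days after dosing, then counted on 4× images. The cells, lung cancer lines in 1536-well plates, had been dosed by pin tool the day after seeding with one drug alone or a fixed anchor-drug dose plus five library-drug doses (not always all listed) in √10 steps. Relative viability is the nuclei count in treated wells divided by that in vehicle wells, and each value is the median of duplicate plates.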

[2] = compound: CN(C)CC1=CC(=CC=C1)N=C(C2=CC=CC=C2)C3=C(NC4=C3C=CC(=C4)C(=O)N(C)C)O + CS(=O)(=O)CCNCc1ccc(-c2ccc3ncnc(Nc4ccc(OCc5cccc(F)c5)c(Cl)c4)c3c2)o1 [Lapatinib] (partner 2 µM)
Procedure, shortened: as §1

[3] = compound: CN(C)CC1=CC(=CC=C1)N=C(C2=CC=CC=C2)C3=C(NC4=C3C=CC(=C4)C(=O)N(C)C)O + Cc1nc(NC(=O)N2CCC[C@H]2C(N)=O)sc1-c1ccnc(C(C)(C)C(F)(F)F)c1 [Alpelisib] (partner 2 µM)
Procedure, shortened: as §1

[4] = compound: CN(C)CC1=CC(=CC=C1)N=C(C2=CC=CC=C2)C3=C(NC4=C3C=CC(=C4)C(=O)N(C)C)O + C[C@]1(O)C[C@@H](c2nc(-c3ccc4ccc(-c5ccccc5)nc4c3)c3c(N)nccn32)C1 [Linsitinib] (partner 1 µM)
Procedure, shortened: as §1

Work on NCI-H3122 yielded a relative viability ([1]; first compound 0.08 µM) of 1.01, a relative viability ([1]; first compound 0.253 µM) of 0.962 and a relative viability ([1]; first compound 0.8 µM) of 1.41. It also gave a relative viability ([1]; first compound 2.53 µM) of 1.06, a relative viability ([1]; first compound 8 µM) of 0.933 and a relative viability ([2]; first compound 0.08 µM) of 0.96. For the same cell line, the relative viability ([2]; first compound 0.253 µM) was 0.971, the relative viability ([2]; first compound 0.8 µM) was 1.01 and the relative viability ([2]; first compound 2.53 µM) was 0.983. For the same cell line, the relative viability ([2]; first compound 8 µM) was 0.997, the relative viability ([3]; first compound 0.08 µM) was 0.679 and the relative viability ([3]; first compound 0.253 µM) was 0.81. The relative viability ([3]; first compound 0.8 µM) was 0.813, the relative viability ([3]; first compound 2.53 µM) was 0.732 and the relative viability ([3]; first compound 8 µM) was 0.792. For the same cell line, the relative viability ([4]; first compound 0.08 µM) was 1.08, the relative viability ([4]; first compound 0.253 µM) was 1.05 and the relative viability ([4]; first compound 0.8 µM) was 1.08. For the same cell line, the relative viability ([4]; first compound 2.53 µM) was 0.972 and the relative viability ([4]; first compound 8 µM) was 1.05.

PC-3 [JPC-3] was tested, and the relative viability ([1]; first compound 0.08 µM) was 0.718, the relative viability ([1]; first compound 0.253 µM) was 0.792 and the relative viability ([1]; first compound 0.8 µM) was 0.73. It also gave a relative viability ([1]; first compound 2.53 µM) of 0.802, a relative viability ([1]; first compound 8 µM) of 0.746 and a relative viability ([2]; first compound 0.08 µM) of 0.436. For the same cell line, the relative viability ([2]; first compound 0.253 µM) was 0.458, the relative viability ([2]; first compound 0.8 µM) was 0.435 and the relative viability ([2]; first compound 2.53 µM) was 0.465. The relative viability ([2]; first compound 8 µM) was 0.444, the relative viability ([3]; first compound 0.08 µM) was 1.02 and the relative viability ([3]; first compound 0.253 µM) was 0.976. For the same cell line, the relative viability ([3]; first compound 0.8 µM) was 1.04, the relative viability ([3]; first compound 2.53 µM) was 1.01 and the relative viability ([3]; first compound 8 µM) was 1.02. It also gave a relative viability ([4]; first compound 0.08 µM) of 0.985, a relative viability ([4]; first compound 0.253 µM) of 0.907 and a relative viability ([4]; first compound 0.8 µM) of 0.883. For the same cell line, the relative viability ([4]; first compound 2.53 µM) was 0.967 and the relative viability ([4]; first compound 8 µM) was 1.06.

PC-14 was tested, and the relative viability ([1]; first compound 0.08 µM) was 0.913, the relative viability ([1]; first compound 0.253 µM) was 0.85 and the relative viability ([1]; first compound 0.8 µM) was 0.968. It also gave a relative viability ([1]; first compound 2.53 µM) of 0.734, a relative viability ([1]; first compound 8 µM) of 0.563 and a relative viability ([2]; first compound 0.08 µM) of 0.33. The relative viability ([2]; first compound 0.253 µM) was 0.264, the relative viability ([2]; first compound 0.8 µM) was 0.38 and the relative viability ([2]; first compound 2.53 µM) was 0.313. The relative viability ([2]; first compound 8 µM) was 0.311, the relative viability ([3]; first compound 0.08 µM) was 0.92 and the relative viability ([3]; first compound 0.253 µM) was 0.865. It also gave a relative viability ([3]; first compound 0.8 µM) of 0.962, a relative viability ([3]; first compound 2.53 µM) of 0.924 and a relative viability ([3]; first compound 8 µM) of 0.837. For the same cell line, the relative viability ([4]; first compound 0.08 µM) was 0.98, the relative viability ([4]; first compound 0.253 µM) was 0.954 and the relative viability ([4]; first compound 0.8 µM) was 0.96. It also gave a relative viability ([4]; first compound 2.53 µM) of 0.874 and a relative viability ([4]; first compound 8 µM) of 0.998.

In the case of RERF-LC-KJ, the relative viability ([1]; first compound 0.08 µM) is reported as 0.575, the relative viability ([1]; first compound 0.253 µM) is reported as 0.613 and the relative viability ([1]; first compound 0.8 µM) is reported as 0.537. The relative viability ([1]; first compound 2.53 µM) was 0.583, the relative viability ([1]; first compound 8 µM) was 0.542 and the relative viability ([2]; first compound 0.08 µM) was 0.917. It also gave a relative viability ([2]; first compound 0.253 µM) of 0.882, a relative viability ([2]; first compound 0.8 µM) of 0.834 and a relative viability ([2]; first compound 2.53 µM) of 0.793. It also gave a relative viability ([2]; first compound 8 µM) of 0.859, a relative viability ([3]; first compound 0.08 µM) of 0.838 and a relative viability ([3]; first compound 0.253 µM) of 0.843. It also gave a relative viability ([3]; first compound 0.8 µM) of 0.732, a relative viability ([3]; first compound 2.53 µM) of 0.785 and a relative viability ([3]; first compound 8 µM) of 0.928. The relative viability ([4]; first compound 0.08 µM) was 0.912, the relative viability ([4]; first compound 0.253 µM) was 0.93 and the relative viability ([4]; first compound 0.8 µM) was 0.81. For the same cell line, the relative viability ([4]; first compound 2.53 µM) was 0.948 and the relative viability ([4]; first compound 8 µM) was 0.87.

Cell Line SK-LU-1 has a relative viability ([1]; first compound 0.08 µM) of 0.373, a relative viability ([1]; first compound 0.253 µM) of 0.366 and a relative viability ([1]; first compound 0.8 µM) of 0.429. For the same cell line, the relative viability ([1]; first compound 2.53 µM) was 0.346, the relative viability ([1]; first compound 8 µM) was 0.244 and the relative viability ([2]; first compound 0.08 µM) was 0.814. The relative viability ([2]; first compound 0.253 µM) was 0.878, the relative viability ([2]; first compound 0.8 µM) was 0.831 and the relative viability ([2]; first compound 2.53 µM) was 0.747. For the same cell line, the relative viability ([2]; first compound 8 µM) was 0.836, the relative viability ([3]; first compound 0.08 µM) was 0.883 and the relative viability ([3]; first compound 0.253 µM) was 1.01. For the same cell line, the relative viability ([3]; first compound 0.8 µM) was 0.992, the relative viability ([3]; first compound 2.53 µM) was 0.87 and the relative viability ([3]; first compound 8 µM) was 0.597. For the same cell line, the relative viability ([4]; first compound 0.08 µM) was 1.05, the relative viability ([4]; first compound 0.253 µM) was 1.2 and the relative viability ([4]; first compound 0.8 µM) was 1.27. For the same cell line, the relative viability ([4]; first compound 2.53 µM) was 1.17 and the relative viability ([4]; first compound 8 µM) was 0.77.

With SK-MES-1 the relative viability ([1]; first compound 0.08 µM) was 0.618, the relative viability ([1]; first compound 0.253 µM) was 0.689 and the relative viability ([1]; first compound 0.8 µM) was 0.635. The relative viability ([1]; first compound 2.53 µM) was 0.534, the relative viability ([1]; first compound 8 µM) was 0.533 and the relative viability ([2]; first compound 0.08 µM) was 0.53. It also gave a relative viability ([2]; first compound 0.253 µM) of 0.531, a relative viability ([2]; first compound 0.8 µM) of 0.49 and a relative viability ([2]; first compound 2.53 µM) of 0.426. For the same cell line, the relative viability ([2]; first compound 8 µM) was 0.443, the relative viability ([3]; first compound 0.08 µM) was 0.876 and the relative viability ([3]; first compound 0.253 µM) was 0.883. It also gave a relative viability ([3]; first compound 0.8 µM) of 0.716, a relative viability ([3]; first compound 2.53 µM) of 0.851 and a relative viability ([3]; first compound 8 µM) of 0.875. For the same cell line, the relative viability ([4]; first compound 0.08 µM) was 1.1, the relative viability ([4]; first compound 0.253 µM) was 1 and the relative viability ([4]; first compound 0.8 µM) was 1.07. It also gave a relative viability ([4]; first compound 2.53 µM) of 0.918 and a relative viability ([4]; first compound 8 µM) of 0.988.

In the case of SW 1573, the relative viability ([1]; first compound 0.08 µM) is reported as 0.581, the relative viability ([1]; first compound 0.253 µM) is reported as 0.644 and the relative viability ([1]; first compound 0.8 µM) is reported as 0.626. For the same cell line, the relative viability ([1]; first compound 2.53 µM) was 0.638, the relative viability ([1]; first compound 8 µM) was 0.521 and the relative viability ([2]; first compound 0.08 µM) was 1.1. The relative viability ([2]; first compound 0.253 µM) was 1.24, the relative viability ([2]; first compound 0.8 µM) was 1.13 and the relative viability ([2]; first compound 2.53 µM) was 1.08. The relative viability ([2]; first compound 8 µM) was 0.955, the relative viability ([3]; first compound 0.08 µM) was 0.787 and the relative viability ([3]; first compound 0.253 µM) was 0.711. The relative viability ([3]; first compound 0.8 µM) was 0.651, the relative viability ([3]; first compound 2.53 µM) was 0.802 and the relative viability ([3]; first compound 8 µM) was 0.642. It also gave a relative viability ([4]; first compound 0.08 µM) of 0.735, a relative viability ([4]; first compound 0.253 µM) of 0.829 and a relative viability ([4]; first compound 0.8 µM) of 0.731. It also gave a relative viability ([4]; first compound 2.53 µM) of 0.73 and a relative viability ([4]; first compound 8 µM) of 0.731.

For UMC-11, the relative viability ([1]; first compound 0.08 µM) was 0.492, the relative viability ([1]; first compound 0.253 µM) was 0.489 and the relative viability ([1]; first compound 0.8 µM) was 0.565. For the same cell line, the relative viability ([1]; first compound 2.53 µM) was 0.404, the relative viability ([1]; first compound 8 µM) was 0.368 and the relative viability ([2]; first compound 0.08 µM) was 1.1. For the same cell line, the relative viability ([2]; first compound 0.253 µM) was 0.963, the relative viability ([2]; first compound 0.8 µM) was 0.969 and the relative viability ([2]; first compound 2.53 µM) was 0.891. It also gave a relative viability ([2]; first compound 8 µM) of 0.846, a relative viability ([3]; first compound 0.08 µM) of 0.972 and a relative viability ([3]; first compound 0.253 µM) of 0.882. For the same cell line, the relative viability ([3]; first compound 0.8 µM) was 1.12, the relative viability ([3]; first compound 2.53 µM) was 0.923 and the relative viability ([3]; first compound 8 µM) was 0.968. For the same cell line, the relative viability ([4]; first compound 0.08 µM) was 1.01, the relative viability ([4]; first compound 0.253 µM) was 0.986 and the relative viability ([4]; first compound 0.8 µM) was 0.985. It also gave a relative viability ([4]; first compound 2.53 µM) of 0.999 and a relative viability ([4]; first compound 8 µM) of 0.926.
